Test results reported in patent US20220325233A1, “MEDIUM SUPPLEMENT FOR HIGH-YIELD INDUSTRIAL CULTURE OF FASTIDIOUS ANAEROBES AND MEDIUM COMPOSITION CONTAINING THE SAME” (priority 2020, published 2022).

System: Akkermansia muciniphila EB-AMDK19 (KCTC 13761BP) strain
Assay: Growth (change in optical density, ΔOD600) in anaerobic batch culture
Format: cell-based
Conditions: for Growth (ΔOD600): after 72 hours of culture; for Growth (AOD 600): after 48 hours of culture
Procedure: In addition, in the following examples, the concentration of anaerobes (amount of biomass produced) was determined by measuring the optical density of the culture medium at 600 nm using a spectrophotometer during the culture period. ΔOD was calculated as the difference in absorbance between the initial stage of culture and after 48 hours (or 72 hours) of culture.
Based on soy casein digest broth (tryptic soy broth (TSB)), the optimal combination of substrates and components that can replace mucin was investigated.
Next, changes in the optical density (OD600) of the strain were measured, and the results of the measurement are shown in Table 3 below.
In addition, to find the optimal concentration of cobalamin, the strain was cultured while changing the concentrations of cobalamin, and then changes in the optical density (OD600) of the strain were measured.
In order to find the essential components necessary for high-concentration culture of anaerobes and an optimal combination thereof, the Akkermansia muciniphila strain was cultured in media having various combinations of components under the same conditions.
An experiment was performed in the same manner as in Example 1 above, except that the medium shown in Table 2 above were used and the kind of strain cultured was changed as shown in Table 7 below. Specifically, each Akkermansia muciniphila strain was inoculated into the medium at a ratio of 0.1% v/v, and then cultured at 37° C. under anaerobic conditions (90% N2, 5% CO2, and 5% H2) for 24 to 48 hours.

[1] = single vitamin added at 0.2 mg/L
[2] = single vitamin added at 0.1 mg/L

Molecule: Cc1ncc(C[n+]2csc(CCO)c2C)c(N)n1 [Medium B1]
- Growth (ΔOD600) [1]: 0.352

Molecule: Cc1cc2nc3c(=O)[nH]c(=O)nc-3n(C[C@H](O)[C@H](O)[C@H](O)CO)c2cc1C [Medium B2]
- Growth (ΔOD600) [2]: 0.334

Molecule: O=C(O)c1cccnc1 [Medium B3]
- Growth (ΔOD600) [1]: 0.342

Molecule: CC(C)(CO)[C@@H](O)C(=O)NCCC(=O)O [Medium B5]
- Growth (ΔOD600) [2]: 0.347

Molecule: Cc1ncc(CO)c(CO)c1O [Medium B6]
- Growth (ΔOD600) (single vitamin added at 0.5 mg/L): 0.337

Molecule: O=C(O)CCCC[C@@H]1SC[C@@H]2NC(=O)N[C@@H]21 [Medium B7]
- Growth (ΔOD600) (single vitamin added at 0.02 mg/L): 0.344

Molecule: Nc1nc(=O)c2nc(CNc3ccc(C(=O)N[C@@H](CCC(=O)O)C(=O)O)cc3)cnc2[nH]1 [Medium B9]
- Growth (ΔOD600) (single vitamin added at 0.05 mg/L): 0.348

Molecule: Nc1ccc(C(=O)O)cc1 [Medium B10]
- Growth (ΔOD600) [2]: 0.335

Molecule: Cyanocobalamin
- Growth (AOD 600) (Cyanocobalamin 0.05 mg/L): 0.563 ± 0.012
- Growth (AOD 600) (Cyanocobalamin 0.1 mg/L): 0.576 ± 0.014
- Growth (AOD 600) (Cyanocobalamin 0.2 mg/L): 0.577 ± 0.008
- Growth (AOD 600) (Cyanocobalamin 0.5 mg/L): 0.575 ± 0.011
- Growth (AOD 600) (Cyanocobalamin 1 mg/L): 0.581 ± 0.003
- Growth (AOD 600) (Cyanocobalamin 5 mg/L): 0.571 ± 0.007
- optimal concentration in the medium (from Table 5 concentration series): 0.1 mg/L
- Growth (ΔOD600) [2]: 0.575
